Assay results taken from patent US20240300934A1, “COMPOUNDS FOR MODULATING MYCOBACTERIUM TUBERCULOSIS RESPONSE” (priority 2021, published 2024).

Legend:
[1] = system: Mtb-infected J774 cells; details: 10 μM for 24 h; 5 days post-infection
[2] = Mouse plasma stability; format: in vitro ADME; details: after 5 h incubation
Description: Assays examining mouse and human liver microsomal stability, kinetic aqueous solubility, mouse and human plasma protein binding and stability, and human cytochrome P450 inhibition characteristics of the compounds were run by BioDuro, Incorporated, using standard protocols as previously described (Wang et al, 2020). hERG inhibition assays were also performed by BioDuro, Incorporated.

[3] = target: human CYP 450 2C9 (Homo sapiens, UniProt P11712); test: Human cytochrome P450 inhibition, 2C9; format: in vitro ADME; details: 10 μM
[4] = Mouse pharmacokinetics, single oral dose; format: in vivo, CD-1 mice
Description: Blood samples were collected in K2EDTA coated tubes pre-dose, 0.5, 1, 3 and 5 hrs post-dose, placed on ice, and centrifuged to recover plasma. The recovered plasma was kept at −80° C. as needed prior to analysis, which was performed as previously described (Wang et al, 2020). In brief, a Sciex Applied Biosystems Qtrap 4000 triple-quadrupole mass spectrometer coupled to an Agilent 1260 HPLC system was used for HPLC coupled to tandem mass spectrometry (LC-MS/MS) quantitative analysis of the samples, with chromatography attained using an Agilent Zorbax SB-C8 column (2.1×30 mm; particle size, 3.5 μm) and a reverse phase gradient elution. The aqueous mobile phase consisted of Milli-Q deionized water with 0.1% formic acid (A), while the organic mobile phase was 0.1% formic acid in acetonitrile (B). The gradient set-up was as follows: 5-90% B over 2 mins, 1 min at 90% B, then an immediate drop to 5% B and an additional 1 min at 5% B. Quantification of molecules was carried out via multiple-reaction monitoring of parent/daughter transitions in electrospray positive-ionization mode, and sample analyses accepted if quality control and standard samples had concentrations within 20% of the nominal concentration. Preparation of compounds for generation of standard curves and quality control spiking solutions were performed as previously described (Wang et al, 2020). Data were processed using Analyst software (Version 1.6.2; Applied Biosystems Sciex).

[5] = system: murine bone marrow derived macrophages phagosome; test: Phagosomal maturation assays with sensor beads; format: cell-based, mouse; details: 10 μM
Description: Carboxyfluorescein (pH readout), DQ-BSA/Alexa Fluor 594 (AF594) (proteolysis readout), and 10,10′-Bis[3-carboxylpropyl]-9,9′-biacridinium (BAC)/AF594 (Cl^− readout) beads were generated as previously described (Podinovskaia et al, 2013; Tan et al, 2013; Tan et al, 2017; Yates et al, 2008). Bone marrow-derived macrophages were isolated from C57BL/6J mice (Jackson Laboratories) and maintained as described above. 2×10^5 macrophages/well were seeded into 96-well clear bottom black plates, and utilized in assays one-two days post-seeding. […] Assay buffer consisted of PBS, pH 7.2, supplemented with 5% FBS, 5 mM dextrose, 1 mM CaCl2, 2.7 mM KCl, and 0.5 mM MgCl2 in the case of assays with the carboxyfluorescein or DQ-BSA/AF594 beads (Buter et al, 2019; Dutta et al, 2020). For assays with the BAC/AF594 beads, assay buffer consisted of PBS, pH 7.2, supplemented with 5% FBS, 5 mM dextrose, 1 mM calcium acetate, 1.35 mM K2SO4, and 0.5 mM MgSO4 (Tan et al, 2013). Sensor beads at ˜2-5 beads/macrophage in appropriate assay buffer were finally added, with data acquisition on a Biotek Synergy H1 microplate reader with bottom read signal detection started within 2-3 minutes of bead addition. Excitation/emission wavelengths were 450 nm/520 nm and 490 nm/520 nm for carboxyfluorescein, 490 nm/520 nm for DQ-BSA, 365 nm/505 nm for BAC, and 590 nm/617 nm for AF594. Each experiment was run with a total of 3-5 replicate wells/condition, with temperature maintained at 37° C. throughout the assay. Wells were read every 2 minutes for 2 hours for the carboxyfluorescein bead assays, every 2 minutes for 4 hours for the DQ-BSA/AF594 bead assays, and every 1 minute for 2 hours for the BAC/AF594 bead assays. Analyses of the results were performed as previously described (Buter et al, 2019; Dutta et al, 2020; Podinovskaia et al, 2013; Tan et al, 2013).

[6] = Mouse plasma protein binding; format: in vitro ADME

Sequence of human CYP 450 2C9 (P11712 whole entry): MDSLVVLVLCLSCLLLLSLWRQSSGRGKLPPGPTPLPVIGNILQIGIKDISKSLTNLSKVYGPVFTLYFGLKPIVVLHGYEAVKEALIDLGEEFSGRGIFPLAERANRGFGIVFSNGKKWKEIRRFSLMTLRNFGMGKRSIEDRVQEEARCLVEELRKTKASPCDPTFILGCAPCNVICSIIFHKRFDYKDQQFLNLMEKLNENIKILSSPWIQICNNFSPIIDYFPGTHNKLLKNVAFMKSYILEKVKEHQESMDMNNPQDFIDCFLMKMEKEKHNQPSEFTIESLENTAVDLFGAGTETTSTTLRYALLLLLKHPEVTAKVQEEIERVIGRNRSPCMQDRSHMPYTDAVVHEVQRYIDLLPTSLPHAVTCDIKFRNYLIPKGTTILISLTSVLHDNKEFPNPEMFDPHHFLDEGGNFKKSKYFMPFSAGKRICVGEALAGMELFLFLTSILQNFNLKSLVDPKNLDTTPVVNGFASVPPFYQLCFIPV

For `CCSc1ncc(CN2CCN(c3nc4ccccc4o3)CC2)cn1` [Compound C6, 2-(4-((2-(ethylthio)pyrimidin-5-yl)methyl)piperazin-1-yl)benzo[d]oxazole], the “accumulation in Mtb-infected J774 cells” value [1] was “trend of greater C6 accumulation in the Mtb-infected J774 cells than uninfected J774 cells”, the “stability in mouse plasma, % remaining” value [2] was > 99.9% and the “% inhibition of CYP 2C9” value [3] was 25.7%. The Kp at 5 h ([4]; female, CD-1, mouse, single 25 mg/kg po dose, 5 h, lung vs plasma, read-out: Mouse PK Clung/Cplasma at t = 5 h) was 0.88, the AUC0-5 h ([4]; single 5 mg/kg oral (po) dose, plasma, CD-1 mice (n=2)) was 5481 ng·h/mL and the “Mouse PK AUC0-5h” value ([4]; single 25 mg/kg po dose, plasma, CD-1 mice) was 25713 ng·h/mL. For the same compound, the “increase in [Cl−] during macrophage phagosomal maturation” value ([5]; BAC/AF594 beads) was “no significant effect”, the “macrophage phagosomal proteolytic activity” value ([5]; DQ-BSA/AF594 beads) was “did not affect macrophage phagosomal proteolytic activity” and the macrophage phagosomal acidification ([5]; carboxyfluorescein beads) was “did not alter macrophage phagosomal acidification”. The “protein binding to mouse plasma” value [6] was 97.0%.
